The values that follow come from US11236068B2, “Fused ring compounds” (Genentech, Inc., priority 2018, dated 2022).

The EC50 is the concentration at which the effect is half-maximal.

Chain of K-Ras G12C (P01116 other isoform, or with tags, fused parts or gaps G12C): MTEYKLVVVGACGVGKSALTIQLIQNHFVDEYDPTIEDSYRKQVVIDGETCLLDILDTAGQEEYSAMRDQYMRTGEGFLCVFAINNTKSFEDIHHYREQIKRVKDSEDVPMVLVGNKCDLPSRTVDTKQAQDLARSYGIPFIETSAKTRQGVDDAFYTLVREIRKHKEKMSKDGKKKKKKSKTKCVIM

The experiment has as its target K-Ras G12C (Homo sapiens (Human), UniProt P01116, G12C). Put plainly: Western blot assay for in cell alkylation of K-Ras G12C (HCC1171 cells). It counts as cell-based. The settings on record: 18 hours at 37° C., 7 point dose response. As to the method:
HCC1171 cells were maintained in RPMI1640 supplemented with 10% FBS. Cells were plated in a 96-well plate at 20,000 cells/well and the following day compounds were added to the cells. After 18 hours at 37° C., cells were lysed in RIPA buffer (Sigma RO278) with 0.5% SDS and protease/phosphatase inhibitor cocktail. After through mixing to enable complete lysis, the lysates were cleared by centrifugation before 20 µl was transferred from each well and combined with loading buffer and reducing agent. After heating for 10 minutes at 95° C., […] of each sample was loaded onto a 4-20% Tris-Glycine gel and electrophoresed at 110V for 165 minutes in SDS-PAGE running buffer. Gels were transferred to a nitrocellulose membrane, blocked for 1 hour and stained overnight at 4° C. with primary antibody against K-Ras (polyclonal Proteintech 12063-1-AP). The membrane was then washed thoroughly and counterstained with anti-rabbit IRDye 800CW (LI-COR 926-32211) for one hour at room temperature. After final washes, the membrane was imaged on a LI-COR Odyssey CLx at medium resolution. […] To quantify this affect, the LICOR software was used to draw a rectangle over alkylated and unalkylated bands for each well and measured the total fluorescent intensity (FI) in each of these bands. The following formula was then used to calculate % alkylation: FI(alkylated)/(FI(alkylated)+FI(unalkylated))*100 for each well.
A 7 point dose response curve was used to determine the IC50 for each compound. Cell alkylation data are presented below in Table 3.
On to `C=C(F)C(=O)N1CCN(c2nc(OC[C@@H]3CCCN3C)nc3cc(-c4nc(N)cc(C)c4C(F)(F)F)c(Cl)cc23)CC1CC#N` (stereo partly drawn) [Example 55, 2-[4-[7-[6-amino-4-methyl-3-(trifluoromethyl)-2-pyridyl]-6-chloro-2-[[(2S)-1-methylpyrrolidin-2-yl]methoxy]quinazolin-4-yl]-1-(2-fluoroprop-2-enoyl)piperazin-2-yl]acetonitrile], for which the 50% effective concentration (EC50) is 26 nM.
To `C=C(F)C(=O)N1CCN(c2nc(OC[C@@H]3C[C@@H](F)CN3C)nc3cc(-c4nc(N)cc(C)c4C(F)(F)F)c(Cl)cc23)CC1CC#N` (stereo partly drawn) [Example 56, 2-[4-[7-[6-amino-4-methyl-3-(trifluoromethyl)-2-pyridyl]-6-chloro-2-[[(2S,4R)-4-fluoro-1-methyl-pyrrolidin-2-yl]methoxy]quinazolin-4-yl]-1-(2-fluoroprop-2-enoyl)piperazin-2-yl]acetonitrile] belongs 26 nM; to `C=C(F)C(=O)N1CCN(c2nc(OC[C@@H]3CCCN3C)nc3cc(-c4nc(N)cc(C)c4C(F)(F)F)c(Cl)cc23)CC1CF` (stereo partly drawn) [Example 57, 1-[4-[7-[6-amino-4-methyl-3-(trifluoromethyl)-2-pyridyl]-6-chloro-2-[[(2S)-1-methylpyrrolidin-2-yl]methoxy]quinazolin-4-yl]-2-(fluoromethyl)piperazin-1-yl]-2-fluoro-prop-2-en-1-one], 230 nM.
To `C=C(F)C(=O)N1CC(C)N(c2nc(OC[C@@H]3C[C@@H](F)CN3C)nc3cc(-c4nc(N)cc(C)c4C(F)(F)F)c(Cl)cc23)C[C@H]1CC#N` (stereo partly drawn) [Example 58, 2-[(2R)-4-[7-[6-amino-4-methyl-3-(trifluoromethyl)-2-pyridyl]-6-chloro-2-[[(2S,4R)-4-fluoro-1-methyl-pyrrolidin-2-yl]methoxy]quinazolin-4-yl]-1-(2-fluoroprop-2-enoyl)-5-methyl-piperazin-2-yl]acetonitrile] belongs 33 nM.
For `C=CC(=O)N1C[C@H](C)N(c2ncnc3cc(-c4nc(N)cc(C)c4C(F)(F)F)c(Cl)cc23)[C@@H](C)C1` [Example 60, 1-[(3S,5S)-4-[7-[6-amino-4-methyl-3-(trifluoromethyl)-2-pyridyl]-6-chloro-quinazolin-4-yl]-3,5-dimethyl-piperazin-1-yl]prop-2-en-1-one] the value was 72 nM; for `C=CC(=O)N1CCN(c2nc(OC3CCCC3N(C)C)nc3cc(-c4nc(N)cc(C)c4C(F)(F)F)c(Cl)cc23)[C@@H](C)C1` (stereo partly drawn) [Example 66, 1-[(3S)-4-[7-[6-amino-4-methyl-3-(trifluoromethyl)-2-pyridyl]-6-chloro-2-[2-(dimethylamino)cyclopentoxy]quinazolin-4-yl]-3-methyl-piperazin-1-yl]prop-2-en-1-one], 28 nM.
`C=CC(=O)N1CCN(c2nc(OC[C@@H]3CCC4(CC4)N3C)nc3cc(-c4nc(N)ccc4C(F)(F)F)c(Cl)cc23)CC1` [Example 72, (S)-1-(4-(7-(6-amino-3-(trifluoromethyl)pyridin-2-yl)-6-chloro-2-((4-methyl-4-azaspiro[2.4]-heptan-5-yl)methoxy)quinazolin-4-yl)piperazin-1-yl)prop-2-en-1-one] registered a concentration for a half-maximal effect (EC50) of 55 nM.
For `C=CC(=O)N1CCN(c2nc(OCC3(C)CC(F)(F)CN3C)nc3cc(-c4nc(N)ccc4C(F)(F)F)c(Cl)cc23)CC1` (centres unmarked) [Example 73, 1-(4-(7-(6-amino-3-(trifluoromethyl)pyridin-2-yl)-6-chloro-2-((4,4-difluoro-1,2-dimethylpyrrolidin-2-yl)methoxy)quinazolin-4-yl)piperazin-1-yl)prop-2-en-1-one] the value was 110 nM; for `C=CC(=O)N1CCN(c2nc(OC(C)(C)[C@@H]3CCCN3C)nc3cc(-c4nc(N)ccc4C(F)(F)F)c(Cl)cc23)CC1` [Example 74, 1-[4-[7-[6-amino-3-(trifluoromethyl)-2-pyridyl]-6-chloro-2-[1-methyl-1-[(2S)-1-methylpyrrolidin-2-yl]ethoxy]quinazolin-4-yl]piperazin-1-yl]prop-2-en-1-one], 110 nM; for `C=CC(=O)N1CCN(c2nc(OCCN3CC(CF)C3)nc3cc(-c4nc(N)ccc4C(F)(F)F)c(Cl)cc23)CC1` [Example 76, 1-(4-(7-(6-amino-3-(trifluoromethyl)pyridin-2-yl)-6-chloro-2-(2-(3-(fluoromethyl)azetidin-1-yl)ethoxy)quinazolin-4-yl)piperazin-1-yl)prop-2-en-1-one], 140 nM.
Regarding `C=CC(=O)N1CCN(c2nc(OC[C@@H]3[C@@H](F)CCN3C)nc3cc(-c4nc(N)ccc4C(F)(F)F)c(Cl)cc23)CC1` [Example 77, 1-[4-[7-[6-amino-3-(trifluoromethyl)-2-pyridyl]-6-chloro-2-[[(2R,3S)-3-fluoro-1-methyl-pyrrolidin-2-yl]methoxy]quinazolin-4-yl]piperazin-1-yl]prop-2-en-1-one], the EC50 is 25 nM.
To `C=CC(=O)N1CCN(c2nc(OC[C@@H]3[C@H]4C[C@H]4CN3C)nc3cc(-c4nc(N)ccc4C(F)(F)F)c(Cl)cc23)CC1` [Example 78a, 1-(4-(7-(6-amino-3-(trifluoromethyl)pyridin-2-yl)-6-chloro-2-(((1S,2S,5R)-3-methyl-3-azabicyclo[3.1.0]hexan-2-yl)methoxy)quinazolin-4-yl)piperazin-1-yl)prop-2-en-1-one] belongs 56 nM; to `C=CC(=O)N1CCN(c2nc(OC[C@@H]3[C@@H]4C[C@@H]4CN3C)nc3cc(-c4nc(N)ccc4C(F)(F)F)c(Cl)cc23)CC1` [Example 78b, 1-(4-(7-(6-amino-3-(trifluoromethyl)pyridin-2-yl)-6-chloro-2-(((1R,2S,5S)-3-methyl-3-azabicyclo[3.1.0]hexan-2-yl)methoxy)quinazolin-4-yl)piperazin-1-yl)prop-2-en-1-one], 40 nM; to `C=CC(=O)N1CCN(c2nc(OCC3CCC(COC)N3C)nc3cc(-c4nc(N)ccc4C(F)(F)F)c(Cl)cc23)CC1` (centres unmarked) [Example 80, 1-(4-(7-(6-amino-3-(trifluoromethyl)pyridin-2-yl)-6-chloro-2-((5-(methoxymethyl)-1-methylpyrrolidin-2-yl)methoxy)quinazolin-4-yl)piperazin-1-yl)prop-2-en-1-one], 71 nM.
Compound `C=CC(=O)N1CCN(c2nc(OC[C@@H]3CCCN3C3COC3)nc3cc(-c4nc(N)ccc4C(F)(F)F)c(Cl)cc23)CC1` [Example 87, 1-[4-[7-[6-amino-3-(trifluoromethyl)-2-pyridyl]-6-chloro-2-[[(2S)-1-(oxetan-3-yl)pyrrolidin-2-yl]methoxy]quinazolin-4-yl]piperazin-1-yl]prop-2-en-1-one] showed a 50% effective concentration (EC50) of 180 nM.
Take `C=CC(=O)N1CCN(c2nc(OCC3(N(C)C)CC3)nc3cc(-c4nc(N)ccc4C(F)(F)F)c(Cl)cc23)CC1` [Example 88, 1-(4-(7-(6-amino-3-(trifluoromethyl)pyridin-2-yl)-6-chloro-2-((1-(dimethylamino)cyclopropyl)methoxy)quinazolin-4-yl)piperazin-1-yl)prop-2-en-1-one]: the concentration for a half-maximal effect (EC50) was determined as 240 nM.
`C=CC(=O)N1CCN(c2nc(OC[C@@H]3C[C@@H](F)CN3CCOC)nc3cc(-c4nc(N)ccc4C(F)(F)F)c(Cl)cc23)CC1` [Example 89, 1-[4-[7-[6-amino-3-(trifluoromethyl)-2-pyridyl]-6-chloro-2-[[(2S,4R)-4-fluoro-1-(2-methoxyethyl)pyrrolidin-2-yl]methoxy]quinazolin-4-yl]piperazin-1-yl]prop-2-en-1-one]: the EC50 was 29 nM.
